{"source": "patent US5604255A", "about": "“N-(1-thienylcycloalkyl)alkenylamines for treatment of neurotoxic injury” (priority 1994, dated 1997)", "key": {"[1]": {"system": "[^3 H]PCP binding sites, rat cerebral cortical membranes", "details": "Goldman et al, FEBS Lett., 170, 333-336 (1985); cited from earlier work"}, "NMDA [2]": {"system": "NMDA", "details": "Berry et al, Eur. J. Pharm., 96, 261-267 (1983); spinal neurones; cited from earlier work"}, "rats": {"system": "rats", "test": "Behavioral assay, stereotyped behavior in rats", "format": "in vivo, Male Sprague-Dawley rats", "details": "for Stereotyped Behavior ED50: i.c.v., at time of maximal behavioral effect, parentheses: 95% confidence intervals", "description": "Compound No. 1 was tested in comparison with PCP and TCP by an in vivo assay which determined stereotypic behavior in rats treated with the compounds. Male Sprague-Dawley rats weighing 200 to 250 g were used in the behavioral experiments. Each rat was used only once. Rats were anesthetized lightly with ether before a 20-gauge needle was used to make a hole in the rat's skull for i.c.v. injection of drugs at a later date. The rats were allowed to recover for at least 1 day before being used in the behavioral assays. On the day of the experiment, rats were placed individually into plastic rat cages and allowed at least 1 hr to acclimate before testing. Drugs were administered to rats in a random, single-blind fashion. Behavioral ratings were taken at 5-min intervals up to 1 hr after drug administration i.c.v. using the PCP rating scale as described by Sturgeon et al [Sturgeon, R. D., Fessler, R. G. and Meltzer, H. Y., \"Behavioral Rating Scales for Accessing Phencyclidine-Induced Locomotor Activity, Stereotyped Behavior And Ataxia In Rats\", European J. Pharmacol. 59 169, (1970)].\nDose-response curves for each treatment were determined at the time of maximal behavioral effect. Peak effects were found 5 min after i.c.v. administration of PCP (25-20000 nmol/rat). […] A rating of 5 in the PCP-rating scale was considered as complete stereotyped behavior, that is, a 100% response. At least 21 rats (at least seven rats/dose) were used to determine each dose-response curve and EDso values. ED50 values and dose-response curves were evaluated using a computerized Finney assay [Statistical Methods In Biological Assays, 2nd Edn., Hatner Pub. Co., New York (1964)].\nThe ability of the tested compounds to induce stereotyped behavior was assessed at 2.5, 5 and 10 minutes and thereafter every 5 min up to 1 hr after i.c.v., i.p., or s.c. administration."}, "hippocampal neurons [3]": {"system": "hippocampal neurons", "test": "Acute azide toxicity assay (MTT neuronal survival)", "format": "cell-based, Sprague-Dawley rats"}, "Quis": {"system": "Quis", "test": "NMDA/KA antagonist assay in embryo retina: blocking Quis neurotoxicity", "parameters": "species or system chick embryo", "details": "Quis 50 μM, 30 min, 37° C.; footnote: @ up to 500 μM", "description": "(§1) A 15-day old chick embryo retina, incubated for 30 min. in a balanced salt solution (BSS) containing 1 mM Glu, developed a full lesion characteristic of an immature mouse retina following s.c. administration of Glu. Other excitotoxin agonists also produce acute lesions within 30 min., each agent being effective at a concentration proportional to its known excitatory and toxic potencies. The pattern of cellular degeneration is restricted in each case to the ganglion cell, inner plexiform and inner nuclear layers, but within these areas certain agonists induce different patterns of degeneration, the differences being most pronounced between NMA and KA. Four agonists were employed in the present test, each at a concentration established previously to be the lowest concentration required to consistently cause a fully-developed retinal lesion: KA (25 μM), Quis (50 μM), NMA (200 μM) and Glu (1000 μM). Compound No. 1 and other PCP-like compounds were tested at various concentrations for their ability to prevent KA, Quis, NMA or Glu neurotoxicity. […] Internal controls in each experiment consisted of at least six specimens being incubated with agonist alone. A typical toxic reaction had to be present in all controls and absent from all experimental specimens in order to qualify as a blocking effect. The method of tissue preparation was as follows: 15-day old chick embryos were decapitated and their eyes removed and cut into quadrants after excising the cornea and removing the lens, vitreous and iris. The retinal quadrants were then gently separated from the pigment epithelium and incubated for 30 min. at 37° C. in BSS to which an agonist or agonist plus antagonist was added. The BSS contained 140 mMNa^+, 5.0 mM K^+, 0.5 mM Ca^++, 4.5 mM Mg^++, 150 mM Cl^-, 5.6 mM glucose and bicarbonate/phosphate buffer (pH 7.3). […]"}, "KA": {"system": "KA", "test": "NMDA/KA antagonist assay in embryo retina: blocking KA neurotoxicity", "parameters": "species or system chick embryo", "details": "KA 25 μM, 30 min, 37° C.; tested from 1000 μM downward", "description": "as §1"}, "hippocampal neurons [4]": {"system": "hippocampal neurons", "test": "Chronic hypoxic insult assay (MTT neuronal survival)", "format": "cell-based, Sprague-Dawley rats", "description": "Compound No. 1 was tested for its ability to protect hippocampal neurons from hypoxia-induced cell death. Cultures of hippocampal neurons were prepared from embryonic day 17 Sprague-Dawley rats. The hippocampi were dissociated into a single cell suspension by incubation with 0.25% trypsin, 40 mg/ml DNase followed by gentle trituration through a Pasteur pipet. The cells were plated in a polylysine-coated 96-well plate and maintained in a chemically defined medium until use. The cells were grown for 2 to 3 weeks in 5% CO2 -in-air humidified environment at 36° C. to establish a thick network of neuronal processes with numerous spontaneously active synapses. […] Following 2 hours of exposure to normal O2 tension, the cultures were processed for morphological and quantitive biochemical neuronal cell viability assays.\nThe neuronal survival assay utilized the compound MTT [(3-(4,5-dimethylthiazol-2-yl)-2,5-diphenyl tetrazolium bromide)], a pale yellow substrate that is cleaved by the mitochondrial enzyme succinate-dehydrogenase to yield a dark blue formazan product. […] The precipitate was then solubilized using 0.08N HCl/isopropanol mixture and the absorbance measured with an ELISA plate reader (Dynatech MR600) using a test wavelength of 570 nm and a reference wavelength of 630 nm. […]"}, "NMA": {"system": "NMA", "test": "NMDA/KA antagonist assay in embryo retina: blocking NMA neurotoxicity", "parameters": "species or system chick embryo", "details": "NMA 200 μM, 30 min, 37° C.", "description": "as §1"}, "hippocampal neurons [5]": {"system": "hippocampal neurons", "test": "Glutamate neurotoxicity assay (MTT neuronal survival)", "format": "cell-based, Sprague-Dawley rats", "details": "for Protection from glutamate toxicity: 500 μM glutamate, 1 hour; for Optical Density (MTT, viable cells): units + SDM, 500 μM glutamate 1 hour, control 0.163, glutamate 0.092", "description": "Compound No. 1 was tested for its ability to protect hippocampal neurons from hypoxia-induced cell death. Cultures of hippocampal neurons were prepared from embryonic day 17 Sprague-Dawley rats. The hippocampi were dissociated into a single cell suspension by incubation with 0.25% trypsin, 40 mg/ml DNase followed by gentle trituration through a Pasteur pipet. The cells were plated in a polylysine-coated 96-well plate and maintained in a chemically defined medium until use. The cells were grown for 2 to 3 weeks in 5% CO2 -in-air humidified environment at 36° C. to establish a thick network of neuronal processes with numerous spontaneously active synapses. Exposure to hypoxic/anoxic environment was accomplished by placing the cultures in an anaerobic chamber, and flushing it with a mixture of 95% N2 +5% CO2 gas to rapidly drop the O2 tension to near zero. The O2 tension was maintained at near zero using a disposable H2 +CO2 generator envelope with palladium catalyst. Compound No. 1 was added to the culture medium prior to incubation in the anaerobic chamber and maintained there for 6 hours. Following 2 hours of exposure to normal O2 tension, the cultures were processed for morphological and quantitive biochemical neuronal cell viability assays.\nThe neuronal survival assay utilized the compound MTT [(3-(4,5-dimethylthiazol-2-yl)-2,5-diphenyl tetrazolium bromide)], a pale yellow substrate that is cleaved by the mitochondrial enzyme succinate-dehydrogenase to yield a dark blue formazan product. This process requires active mitochondria, present only in live cells. Cultures of hippocampal neurons grown in 96-well plates were incubated with 1 mg/ml MTT at 36° C. in a 10% CO2 -in-air incubator for 30-60 min. At the end of the incubation, a dark blue precipitate outlined only viable cells. The precipitate was then solubilized using 0.08N HCl/isopropanol mixture and the absorbance measured with an ELISA plate reader (Dynatech MR600) using a test wavelength of 570 nm and a reference wavelength of 630 nm. The resulting optical density is directly proportional to the number of viable cells.\nCompound No. 1 was tested for its ability to protect neurons from glutamate-induced neurotoxicity, which selectively kills mature neurons while sparing glial cells. Neuronal cells were prepared and cell viability assays were performed as described in the chronic hypoxia insult assay, above.\nHippocampal cultures were exposed to 500 μM glutamate for 1 hour either in the presence or absence of Compound No. 1 and immediately thereafter processed for qualitative (morphological) and quantitative viability assay."}, "PCP receptors": {"target": "PCP receptors", "test": "Radioreceptor assay, displacement of 3H-TCP from rat brain membranes", "details": "read-out: Ki apparent; units + SEM; 1 nM 3H-TCP, whole rat brain membranes, 1 hour incubation"}, "NMDA [6]": {"system": "NMDA", "details": "Anis et al, Br. J. Pharmacol., 79, 565 (1983); cited from earlier work"}}, "data": [{"compound": "CC1CCCN(C2(c3ccccc3)CCCCC2)C1", "note": "(single isomer, unassigned; (+)) [(+)-PCMP, (+)-1-(1-phenylcyclohexyl)-3-methylpiperidine]", "values": [{"measurement": "Inhibition of specific binding of [^3 H]PCP", "setting": "[1]", "value": "potent inhibitor"}, {"measurement": "Stereoselective effects over isomer counterpart in reducing the excitatory action of NMDA", "setting": "NMDA [2]", "value": "confirmed"}]}, {"compound": "C1=CCN(C2(c3cccs3)CCCCC2)CC1", "note": "[Compound No. 1, 1-[1-(2-thienyl)-cyclohexyl]-1,2,5,6-tetrahydropyridine]", "values": [{"measurement": "Stereotyped Behavior ED50", "setting": "rats", "value": "43 (34-57) nmol/rat"}, {"measurement": "Protection of neurons from sodium azide poisoning", "setting": "hippocampal neurons [3]; 1 μM compound, 10 μM sodium azide, 1 hour", "value": "significant protection"}, {"measurement": "Optical Density (MTT, viable cells)", "setting": "hippocampal neurons [3]; units + SDM, sodium azide 1 hour + 1 μM compound, control 0.146, sodium azide 0.084", "value": "0.138 ± .013"}, {"measurement": "Protection vs Quis", "setting": "Quis", "value": "Zero @ 250 μM"}, {"measurement": "Protection vs KA", "setting": "KA", "value": "Partial @ 5 μM"}, {"measurement": "EC (maximum protection)", "setting": "hippocampal neurons [4]; Rattus norvegicus, Hippocampal neuron, hypoxia 6 hours, read-out: Concentration giving maximum protection of neurons from hypoxic insult", "value": 50, "unit": "µM"}, {"measurement": "Optical Density (MTT, viable cells)", "setting": "hippocampal neurons [4]; units + SDM, hypoxia + 50 μM compound, 6 hours, untreated control 0.163, hypoxia 0.062", "value": "0.173 ± .033"}, {"measurement": "Minimal concentration required to provide total protection vs NMA", "setting": "NMA", "value": 0.25, "unit": "µM"}, {"measurement": "Protection from glutamate toxicity", "setting": "hippocampal neurons [5]; 5 μM compound", "value": "significant protection"}, {"measurement": "Protection from glutamate toxicity", "setting": "hippocampal neurons [5]; 50 μM compound", "value": "Nearly complete protection"}, {"measurement": "Optical Density (MTT, viable cells)", "setting": "hippocampal neurons [5]; 5 μM compound", "value": "0.147 ± .017"}, {"measurement": "Optical Density (MTT, viable cells)", "setting": "hippocampal neurons [5]; 50 μM compound", "value": "0.157 ± .017"}, {"measurement": "Ki", "setting": "PCP receptors", "value": "12 ± 2", "unit": "nM"}]}, {"compound": "S=C=Nc1cccc(C2(N3CCCCC3)CCCCC2)c1", "note": "[Metaphit, 1-[1-(3-isothiocyanatophenyl)cyclohexyl]piperidine]", "values": [{"measurement": "Protection vs Quis", "setting": "Quis", "value": "No Activity"}, {"measurement": "Protection vs KA", "setting": "KA", "value": "No Activity"}, {"measurement": "Minimal concentration required to provide total protection vs NMA", "setting": "NMA", "value": 50, "unit": "µM"}]}, {"compound": "c1ccc(C2(N3CCCCC3)CCCCC2)cc1", "note": "[PCP, Phencyclidine]", "values": [{"measurement": "Time of peak behavioral effect", "setting": "rats; after i.c.v. administration, 25-20000 nmol/rat", "value": 5, "unit": "min"}, {"measurement": "Time of peak behavioral effect", "setting": "rats; after i.p. administration, 2.0-32 mg/kg", "value": 15, "unit": "min"}, {"measurement": "Stereotyped Behavior ED50", "setting": "rats", "value": "150 (120-180) nmol/rat"}, {"measurement": "Reduction of the excitatory effects of NMDA as compared to KA and QUIS", "setting": "NMDA [6]", "value": "reduce selectively the excitatory effects of NMDA"}, {"measurement": "Protection vs Quis", "setting": "Quis", "value": "No Activity"}, {"measurement": "Protection vs KA", "setting": "KA", "value": "No Activity"}, {"measurement": "Minimal concentration required to provide total protection vs NMA", "setting": "NMA", "value": 1, "unit": "µM"}, {"measurement": "Ki", "setting": "PCP receptors", "value": "96 ± 15", "unit": "nM"}]}, {"compound": "c1csc(C2(N3CCCCC3)CCCCC2)c1", "note": "[TCP]", "values": [{"measurement": "Stereotyped Behavior ED50", "setting": "rats", "value": "56 (49-76) nmol/rat"}, {"measurement": "Ki", "setting": "PCP receptors", "value": "20 ± 6", "unit": "nM"}]}, {"compound": "CC1CCC(c2ccccc2)(N2CCCCC2)CC1", "note": "(stereo not drawn) [cis-N-(1-phenyl-4-methylcyclohexyl)piperidine]", "values": [{"measurement": "Stereoselective effects over isomer counterpart in reducing the excitatory action of NMDA", "setting": "NMDA [2]", "value": "confirmed"}]}, {"compound": "CNC1(c2ccccc2Cl)CCCCC1=O", "note": "(stereo not drawn) [ketamine]", "values": [{"measurement": "Reduction of the excitatory effects of NMDA as compared to KA and QUIS", "setting": "NMDA [6]", "value": "reduce selectively the excitatory effects of NMDA"}]}]}
